Read-outs that look alike come from different tables or passages of the source. Starred links: 1 amine or outer side, 2 acyl side, 3 side chain; linkers in the order of their positions; H or OH if unused. Non-standard residues stand in square brackets, D forms with d. *: point of attachment. mPro = cis-3,4-methanoproline, O=C([C@@H]1[C@@H]2C[C@@H]2CN1[*:1])[*:2]; pY = N[C@@H](Cc1ccc(OP(=O)(O)O)cc1)C(=O)O; Hydrocinnamoyl = O=C(CCc1ccccc1)*; NHBn = c1ccc(CN*)cc1
Tests used:
SH2 domain of Stat3 [1] = target: T1, SH2 domain of Stat3 (Homo sapiens, UniProt P40763); conditions: FP assay; ref [8]; cited from earlier work
SH2 domain of Stat3 [2] = target: T1, SH2 domain of Stat3; assay: fluorescence polarization; format: binding; conditions: for fold lower affinity than the unsubstituted methyl group: relative to 4-methyl Aba peptide (17)

T1 sequence (P40763 whole entry, the tested form may be a part): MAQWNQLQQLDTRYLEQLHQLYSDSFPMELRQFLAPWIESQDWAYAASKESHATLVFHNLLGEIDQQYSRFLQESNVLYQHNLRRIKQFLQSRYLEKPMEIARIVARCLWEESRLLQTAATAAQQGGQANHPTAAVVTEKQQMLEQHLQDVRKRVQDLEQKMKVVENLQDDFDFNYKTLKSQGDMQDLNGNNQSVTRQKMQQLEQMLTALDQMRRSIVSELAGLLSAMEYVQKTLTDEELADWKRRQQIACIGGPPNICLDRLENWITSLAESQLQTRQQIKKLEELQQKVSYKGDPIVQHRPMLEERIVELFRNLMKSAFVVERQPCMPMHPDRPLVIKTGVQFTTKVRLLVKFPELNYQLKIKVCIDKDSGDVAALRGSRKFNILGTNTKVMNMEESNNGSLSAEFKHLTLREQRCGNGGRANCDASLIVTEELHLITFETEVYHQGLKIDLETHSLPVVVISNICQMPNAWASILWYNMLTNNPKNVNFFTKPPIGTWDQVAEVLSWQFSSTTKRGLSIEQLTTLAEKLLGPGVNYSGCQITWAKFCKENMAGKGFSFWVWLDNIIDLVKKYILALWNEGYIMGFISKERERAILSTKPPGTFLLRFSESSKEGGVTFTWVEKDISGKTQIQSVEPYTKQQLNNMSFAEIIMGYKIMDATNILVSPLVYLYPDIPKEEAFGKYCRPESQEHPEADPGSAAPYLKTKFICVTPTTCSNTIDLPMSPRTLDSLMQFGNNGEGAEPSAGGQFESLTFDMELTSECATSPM

hydrocinnamoyl-pTyr-Leu-mPro-Gln-NHBn (Hydrocinnamoyl-[pY]L[mPro]Q-NHBn; SMILES CC(C)C[C@H](NC(=O)[C@H](Cc1ccc(OP(=O)(O)O)cc1)NC(=O)CCc1ccccc1)C(=O)N1C[C@H]2C[C@H]2[C@H]1C(=O)N[C@@H](CCC(N)=O)C(=O)NCc1ccccc1)
IC50 (SH2 domain of Stat3 [1]): 125 nM

CC(C)C[C@H](NC(=O)/C=C/c1ccc(OP(=O)(O)O)cc1)C(=O)N1CCC[C@H]1C(=O)N[C@@H](COC(N)=O)[C@H](C)OCc1ccccc1 [Peptide 37]
IC50 (SH2 domain of Stat3 [2]): 6.9 µM

CC(C)C[C@H](NC(=O)/C=C/c1ccc(OP(=O)(O)O)cc1)C(=O)N1C[C@H]2C[C@H]2[C@H]1C(=O)N[C@@H](CCC(N)=O)C(=O)NCc1ccccc1 [Peptide 40, pCinn-Leu-cis-3,4-methanoPro-Gln-NHBn]
fold increase in affinity on incorporation of cis-3,4-methanoPro (SH2 domain of Stat3 [2]; relative to peptide 2): 2 fold

CC(C)C[C@H](NC(=O)/C=C/c1ccc(OP(=O)(O)O)cc1)C(=O)N1CCC[C@H]1C(=O)N[C@@H](CCC(N)=O)CN(Cc1ccccc1)Cc1ccccc1 [Peptide 29]
fold lower affinity than the unsubstituted methyl group (SH2 domain of Stat3 [2]): 7 fold

CC(C)C[C@H](NC(=O)/C=C/c1ccc(OP(=O)(O)O)cc1)C(=O)N1CCC[C@H]1C(=O)N[C@H](CN)CCC(N)=O [Peptide 30]
fold lower affinity than the unsubstituted methyl group (SH2 domain of Stat3 [2]): 10 fold

CC(C)C[C@H](NC(=O)/C=C/c1ccc(OP(=O)(O)O)cc1)C(=O)N1CCC[C@H]1C(=O)N[C@H](C)CNC(N)=O [Peptide 39]
fold loss in activity on addition of a methyl group (SH2 domain of Stat3 [2]; relative to 2-aminoethylurea peptide 38): 10 fold

Reference: paper PMC2859832 (Journal of medicinal chemistry, 2009)
